Experimental data from ChEMBL document CHEMBL3872201, “Synthesis and antiproliferative activity of a natural like glycoconjugate polycyclic compound” (2016).
The source made the active and inactive calls. The rule behind the calls is not given here.

Tests used:
[1] = Antiproliferative activity against human MOLT4 cells after 48 hrs by sulforhodamine B assay; type: functional; conditions: MOLT-4, 48 h
[2] = Antiproliferative activity against human SR cells after 48 hrs by sulforhodamine B assay; type: functional
MDA-MB-231 [3] = assay: Effect on cell cycle regulatory protein in human MDA-MB-231 cells assessed as p21 level at 5 uM after 24 hrs by Western blot analysis relative to control; type: functional
[4] = Cell cycle arrest in human MDA-MB-231 cells assessed as cell enlargement at 5 to 10 uM after 8 days by light microscopic analysis; type: functional, cell-based
[5] = Antiproliferative activity against human TK10 cells after 48 hrs by sulforhodamine B assay; type: functional; conditions: TK-10, 48 h
[6] = Cytotoxicity against human MDA-MB-231 cells assessed as inhibition of cell viability at 5 uM after 24 hrs by MTT assay relative to control; type: functional; conditions: MDA-MB-231, 24 h
[7] = Antiproliferative activity against human DU145 cells after 48 hrs by sulforhodamine B assay; type: functional; conditions: DU-145, 48 h
MDA-MB-231 [8] = assay: Effect on cell cycle regulatory protein in human MDA-MB-231 cells assessed as cdc2 level at 5 uM after 48 hrs by Western blot analysis relative to control; type: functional
[9] = Antiproliferative activity against human SK-MEL-28 cells after 48 hrs by sulforhodamine B assay; type: functional; conditions: SK-MEL-28, 48 h
[10] = Antiproliferative activity against human RXF393 cells after 48 hrs by sulforhodamine B assay; type: functional; conditions: RXF 393, 48 h
MDA-MB-231 [11] = assay: Effect on cell cycle regulatory protein in human MDA-MB-231 cells assessed as p21 level at 5 uM after 48 hrs by Western blot analysis relative to control; type: functional
[12] = Cell cycle arrest in human MDA-MB-231 cells assessed as accumulation at subG0/G1 phase at 10 uM after 72 hrs by propidium iodide staining based flow cytometric analysis (reference value: 6.3%); type: functional
[13] = Cell cycle arrest in human MDA-MB-231 cells assessed as accumulation at G0/G1 phase at 10 uM after 72 hrs by propidium iodide staining based flow cytometric analysis (reference value: 69.3%); type: functional
[14] = Antiproliferative activity against human HCT15 cells after 48 hrs by sulforhodamine B assay; type: functional; conditions: HCT-15, 48 h
[15] = Antiproliferative activity against human OVCAR8 cells after 48 hrs by sulforhodamine B assay; type: functional; conditions: OVCAR-8, 48 h
MDA-MB-231 [16] = assay: Effect on cell cycle regulatory protein in human MDA-MB-231 cells assessed as p21 level at 10 uM after 24 hrs by Western blot analysis relative to control; type: functional
[17] = Antiproliferative activity against human A498 cells after 48 hrs by sulforhodamine B assay; type: functional; conditions: A498, 48 h
[18] = Cell cycle arrest in human MDA-MB-231 cells assessed as accumulation at G0/G1 phase at 5 uM after 72 hrs by propidium iodide staining based flow cytometric analysis (reference value: 69.3%); type: functional
[19] = Antiproliferative activity against human NCI-H460 cells after 48 hrs by sulforhodamine B assay; type: functional; conditions: NCI-H460, 48 h
[20] = Antiproliferative activity against human SK-MEL-2 cells after 48 hrs by sulforhodamine B assay; type: functional; conditions: SK-MEL-2, 48 h
[21] = Cell cycle arrest in human MDA-MB-231 cells assessed as accumulation at G2/M phase after 96 to 120 hrs by propidium iodide staining based flow cytometric analysis; type: functional
[22] = Cell cycle arrest in human MDA-MB-231 cells assessed as accumulation at G2/M phase at 5 uM after 72 hrs by propidium iodide staining based flow cytometric analysis (reference value: 19.7%); type: functional
MDA-MB-231 [23] = assay: Effect on cell cycle regulatory protein in human MDA-MB-231 cells assessed as p21 level at 10 uM after 48 hrs by Western blot analysis relative to control; type: functional
[24] = Cell cycle arrest in human MDA-MB-231 cells assessed as accumulation at G2/M phase at 10 uM after 24 hrs by propidium iodide staining based flow cytometric analysis (reference value: 20.4%); type: functional
[25] = Antiproliferative activity against human Hs 578T cells after 48 hrs by sulforhodamine B assay; type: functional
[26] = Antiproliferative activity against human MDA-MB-468 cells after 48 hrs by sulforhodamine B assay; type: functional; conditions: MDA-MB-468, 48 h
[27] = read-out: LC50 (the source's name)

SMILES: C=C1c2c(C)nn(-c3ccc(C#CCO[C@@H]4O[C@H](CO)[C@@H](O)[C@H](O)[C@H]4O)cc3)c2N(C)C23CC1C1(C)c4c(C)nn(-c5ccc(C#CCO[C@@H]6O[C@H](CO)[C@@H](O)[C@H](O)[C@H]6O)cc5)c4N(C)C(C)(CC12)C3 (stereo partly specified)
- GI50 [1]: 1280 nM
- TGI [1]: 3.88 µM
- CC50 [1, 27]: 100 µM
- GI50 [2]: 3.28 µM
- TGI [2]: 100 µM
- CC50 [2, 27]: 100 µM
- fold change (FC) (MDA-MB-231 [3]): 0.1
- Activity [4]: Active
- GI50 [5]: 2010 nM
- TGI [5]: 4.04 µM
- CC50 [5, 27]: 8.09 µM
- inhibition at 5 µM [6]: 65%
- GI50 [7]: 1970 nM
- TGI [7]: 5.16 µM
- CC50 [7, 27]: 17.3 µM
- fold change (FC) (MDA-MB-231 [8]): 1.5
- GI50 [9]: 1900 nM
- TGI [9]: 3.52 µM
- CC50 [9, 27]: 6.5 µM
- GI50 [10]: 1620 nM
- TGI [10]: 3.52 µM
- CC50 [10, 27]: 7.63 µM
- fold change (FC) (MDA-MB-231 [11]): 0.2
- Activity [12]: 1.6%
- Activity [13]: 61.8%
- GI50 [14]: 1570 nM
- TGI [14]: 3.45 µM
- GI50 [15]: 1000 nM
- TGI [15]: 3.84 µM
- CC50 [15, 27]: 55.1 µM
- fold change (FC) (MDA-MB-231 [16]): 1
- GI50 [17]: 1500 nM
- TGI [17]: 3.18 µM
- CC50 [17, 27]: 6.72 µM
- Activity [18]: 74%
- GI50 [19]: 1690 nM
- TGI [19]: 3.85 µM
- CC50 [19, 27]: 8.77 µM
- GI50 [20]: 1760 nM
- TGI [20]: 3.39 µM
- CC50 [20, 27]: 6.55 µM
- Activity [21]: Active
- Activity [22]: 18.7%
- fold change (FC) (MDA-MB-231 [23]): 2
- Activity [24]: 36.6%
- GI50 [25]: 470 nM
- TGI [25]: 9.85 µM
- CC50 [25, 27]: 100 µM
- GI50 [26]: 1340 nM
- TGI [26]: 2730 nM
- CC50 [26, 27]: 5.57 µM
